What all share (type): cell-based
The nature of assay [1]: Selectivity ratio for agonist activity at THRalpha LBD (unknown origin) transiently transfected in HEK293T cells to agonist activity at human NOR-1 LBD transiently transfected in HEK293T cells.
In assay [2] the target is T1, Retinoic acid receptor alpha (Homo sapiens) (UniProt P10276).
T1 sequence (whole entry): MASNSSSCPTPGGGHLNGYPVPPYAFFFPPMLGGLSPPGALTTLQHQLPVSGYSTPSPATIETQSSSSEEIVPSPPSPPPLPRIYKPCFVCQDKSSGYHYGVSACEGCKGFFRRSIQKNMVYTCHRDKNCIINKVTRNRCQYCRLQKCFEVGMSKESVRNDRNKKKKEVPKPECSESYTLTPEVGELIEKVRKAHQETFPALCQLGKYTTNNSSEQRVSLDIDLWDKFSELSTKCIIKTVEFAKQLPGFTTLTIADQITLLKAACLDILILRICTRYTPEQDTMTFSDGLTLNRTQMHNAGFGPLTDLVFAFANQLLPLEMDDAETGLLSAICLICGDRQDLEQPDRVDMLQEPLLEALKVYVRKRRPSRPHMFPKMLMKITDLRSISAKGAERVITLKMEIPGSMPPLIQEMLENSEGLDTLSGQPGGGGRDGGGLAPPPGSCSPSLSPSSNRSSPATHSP
Kind of assay: Agonist activity at RARalpha LBD (unknown origin) transiently transfected in HEK293T cells at 1 uM incubated for 16 hrs by Gal4-hybrid reporter gene based Dual-glo luciferase assay.

Assay [3] addresses T2, Thyroid hormone receptor alpha (Homo sapiens) (UniProt P10827).
T2 sequence (whole entry): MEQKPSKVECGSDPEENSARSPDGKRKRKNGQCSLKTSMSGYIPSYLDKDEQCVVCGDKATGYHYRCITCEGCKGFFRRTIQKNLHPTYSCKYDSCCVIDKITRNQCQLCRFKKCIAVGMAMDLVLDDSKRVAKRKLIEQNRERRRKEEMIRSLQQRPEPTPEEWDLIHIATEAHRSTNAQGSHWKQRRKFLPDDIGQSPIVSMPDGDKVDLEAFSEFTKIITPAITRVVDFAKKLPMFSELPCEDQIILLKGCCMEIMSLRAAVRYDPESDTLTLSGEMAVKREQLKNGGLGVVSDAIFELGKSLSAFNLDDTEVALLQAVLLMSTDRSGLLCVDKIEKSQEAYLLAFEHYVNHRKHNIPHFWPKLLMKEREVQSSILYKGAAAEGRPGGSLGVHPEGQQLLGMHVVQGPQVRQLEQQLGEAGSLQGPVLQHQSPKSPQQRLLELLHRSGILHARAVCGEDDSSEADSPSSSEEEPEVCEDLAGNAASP
Kind of assay: Agonist activity at THRalpha LBD (unknown origin) transiently transfected in HEK293T cells at 1 uM incubated for 16 hrs by Gal4-hybrid reporter gene based Dual-glo luciferase assay.

The nature of assay [4]: Selectivity ratio for agonist activity at RARalpha LBD (unknown origin) transiently transfected in HEK293T cells to agonist activity at human NOR-1 LBD transiently transfected in HEK293T cells.
Assay [5] concerns the target T3, Peroxisome proliferator-activated receptor gamma (Homo sapiens) (UniProt P37231).
T3 sequence (whole entry): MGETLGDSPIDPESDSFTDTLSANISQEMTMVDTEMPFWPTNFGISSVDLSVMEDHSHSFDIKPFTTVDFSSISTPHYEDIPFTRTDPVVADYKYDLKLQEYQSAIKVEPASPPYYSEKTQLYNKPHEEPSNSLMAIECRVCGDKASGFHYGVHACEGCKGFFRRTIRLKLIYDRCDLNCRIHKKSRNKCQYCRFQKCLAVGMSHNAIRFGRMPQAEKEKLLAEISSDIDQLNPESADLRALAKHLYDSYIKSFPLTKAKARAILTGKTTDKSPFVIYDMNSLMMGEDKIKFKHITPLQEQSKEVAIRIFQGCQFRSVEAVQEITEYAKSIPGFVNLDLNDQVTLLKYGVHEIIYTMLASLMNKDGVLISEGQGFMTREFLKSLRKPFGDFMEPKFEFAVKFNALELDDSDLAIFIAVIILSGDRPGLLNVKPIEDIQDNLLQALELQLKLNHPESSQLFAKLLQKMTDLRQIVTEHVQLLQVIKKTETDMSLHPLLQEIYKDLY
Kind of assay: Agonist activity at PPARgamma LBD (unknown origin) transiently transfected in HEK293T cells at 1 uM incubated for 16 hrs by Gal4-hybrid reporter gene based Dual-glo luciferase assay. In general terms: Reporter assays use an easily measured gene product as a stand-in for the process of interest.

The nature of assay [6]: Selectivity ratio for agonist activity at VDR LBD (unknown origin) transiently transfected in HEK293T cells to agonist activity at human Nurr1 LBD transiently transfected in HEK293T cells.
The nature of assay [7]: Selectivity ratio for agonist activity at FXR LBD (unknown origin) transiently transfected in HEK293T cells to agonist activity at human Nur77 LBD transiently transfected in HEK293T cells.
Assay [8] in a line: Selectivity ratio for agonist activity at PPARgamma LBD (unknown origin) transiently transfected in HEK293T cells to agonist activity at human NOR-1 LBD transiently transfected in HEK293T cells.

The structures appear in SMILES notation. Activity calls are given as the source filed them. The rule behind the calls is not given here.

Turning to `CC(C)(C)c1ccc(COc2cccc(C(=O)O)c2)cc1`, the Selectivity ratio in assay [1], in assay [4], in assay [6], in assay [7] and in assay [8] was above 30 each time. Also, the result in assay [2], in assay [3] and in assay [5] was inactive.

The record behind these values is ChEMBL document CHEMBL5390264, “Exploring Fatty Acid Mimetics as NR4A Ligands” (J Med Chem, 2023).
